Laboratory results as given in patent publication US9376442B2, “Methylpyrrolopyrimidinecarboxamides” (Takeda GmbH, priority 2009, dated 2016).

Biological target: T1, PDE5A1 (Homo sapiens, UniProt O76074)
T1 construct: from tissue; host or cells: human platelets from fresh donor blood (10,000 x g supernatant of sonicated lysate)
Test: Inhibition of type 5 phosphodiesterase (PDE5) activity, modified SPA test with human platelet lysate
Assay type: biochemical
Conditions: 0.5 μM cGMP, read-out: PDE5A1 inhibitory values [measured as −log IC50 (mol/l)] (converted)
In short: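 Enzyme source is lysate from human platelets (10,000 g supernatant). Compound preincubated 5 min at 37° C in Tris pH 7.4 containing 1 μM motapizone and 10 nM of a PDE2 inhibitor. Reaction started with 0.5 μM cGMP ([3H] tracer) and run 15 min; SPA read-out, IC50 by non-linear regression.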

IC50 [nM]	SMILES
< 1	CCC(=O)N1CCC(NC(=O)c2c(C)[nH]c3c(-c4ccc(F)cc4OCC4CC4)ncnc23)CC1 [Example E20, 4-[2-(Cyclopropylmethoxy)-4-fluorophenyl]-6-methyl-N-(1-propionylpiperidin-4-yl)-5H-pyrrolo[3,2-d]pyrimidine-7-carboxamide]
< 1	CC(=O)N1CCC(NC(=O)c2c(C)[nH]c3c(-c4c(OCC5CC5)ccc5c4OCO5)ncnc23)CC1 [Example E1, N-(1-Acetylpiperidin-4-yl)-4-[5-(cyclopropylmethoxy)-1,3-benzodioxol-4-yl]-6-methyl-5H-pyrrolo[3,2-d]pyrimidine-7-carboxamide]
1 to 10	CC(=O)N1C[C@@H](O)[C@H](NC(=O)c2c(C)[nH]c3c(-c4ccc(F)cc4OCC4CC4)ncnc23)C1 (relative stereo) [Example E31, N-[(3R*,4R*)-1-acetyl-4-hydroxypyrrolidin-3-yl]-4-[2-(cyclopropylmethoxy)-4-fluorophenyl]-6-methyl-5H-pyrrolo[3,2-d]pyrimidine-7-carboxamide]
< 1	CCC(=O)N[C@H]1CC[C@@H](NC(=O)c2c(C)[nH]c3c(-c4cc(OC)c(F)cc4OCC4CC4)ncnc23)CC1 [Example E111, 4-[2-(Cyclopropylmethoxy)-4-fluoro-5-methoxyphenyl]-6-methyl-N-[cis-4-(propionylamino)cyclohexyl]-5H-pyrrolo[3,2-d]pyrimidine-7-carboxamide]
< 1	CC(=O)N[C@H]1CC[C@@H](NC(=O)c2c(C)[nH]c3c(-c4cc(C)c(F)cc4OCC4CC4)ncnc23)CC1 [Example E125, N-[cis-4-(Acetylamino)cyclohexyl]-4-[2-(cyclopropylmethoxy)-4-fluoro-5-methylphenyl]-6-methyl-5H-pyrrolo[3,2-d]pyrimidine-7-carboxamide]
< 1	COc1ccc(-c2ncnc3c(C(=O)N[C@@H]4CCN(C(C)=O)C4)c(C)[nH]c23)c(OCC2CC2)c1 [Example E60, N-[(3R)-1-acetylpyrrolidin-3-yl]-4-[2-(cyclopropylmethoxy)-4-methoxyphenyl]-6-methyl-5H-pyrrolo[3,2-d]pyrimidine-7-carboxamide]
< 1	COCC(=O)N1C[C@@H](O)[C@H](NC(=O)c2c(C)[nH]c3c(-c4cc(OC)c(F)cc4OCC4CC4)ncnc23)C1 (relative stereo) [Example E185, 4-[2-(Cyclopropylmethoxy)-4-fluoro-5-methoxyphenyl]-N-[(3R*,4R*)-4-hydroxy-1-(methoxyacetyl)pyrrolidin-3-yl]-6-methyl-5H-pyrrolo[3,2-d]pyrimidine-7-carboxamide]
< 1	CCOC(=O)N[C@H]1CC[C@H](NC(=O)c2c(C)[nH]c3c(-c4c(OCC5CC5)ccc5c4OCO5)ncnc23)CC1 [Example E8, Ethyl {trans-4-[({4-[5-(cyclopropylmethoxy)-1,3-benzodioxol-4-yl]-6-methyl-5H-pyrrolo[3,2-d]pyrimidin-7-yl}carbonyl)amino]cyclohexyl}carbamate]
< 1	COc1cc(OCC2CC2)c(-c2ncnc3c(C(=O)NC4CCN(C(=O)[C@H](C)O)CC4)c(C)[nH]c23)cc1F [Example F84, 4-[2-(Cyclopropylmethoxy)-5-fluoro-4-methoxyphenyl]-N-{1-[(2S)-2-hydroxypropanoyl]piperidin-4-yl}-6-methyl-5H-pyrrolo[3,2-d]pyrimidine-7-carboxamide]
< 1	COc1cc(OCC2CC2)c(-c2ncnc3c(C(=O)N[C@@H]4CN(C(=O)CO)C[C@H]4O)c(C)[nH]c23)cc1F (relative stereo) [Example F117, 4-[2-(Cyclopropylmethoxy)-5-fluoro-4-methoxyphenyl]-N-[(3R*,4R*)-1-glycoloyl-4-hydroxypyrrolidin-3-yl]-6-methyl-5H-pyrrolo[3,2-d]pyrimidine-7-carboxamide]
1 to 10	CC(=O)N1CC[C@@H](NC(=O)c2c(C)[nH]c3c(-c4cc(F)ccc4OCC4CC4)ncnc23)C1 [Example E46, N-[(3R)-1-acetylpyrrolidin-3-yl]-4-[2-(cyclopropylmethoxy)-5-fluorophenyl]-6-methyl-5H-pyrrolo[3,2-d]pyrimidine-7-carboxamide]
< 1	CCc1ccc(OCC2CC2)c(-c2ncnc3c(C(=O)NC4CCN(C(=O)CO)CC4)c(C)[nH]c23)c1 [Example F91]
< 1	COc1cc(OCC2CC2)c(-c2nc(C)nc3c(C(=O)NC4CCN(C(C)=O)CC4)c(C)[nH]c23)cc1F [Example E172, N-(1-Acetylpiperidin-4-yl)-4-[2-(cyclopropylmethoxy)-5-fluoro-4-methoxyphenyl]-2,6-dimethyl-5H-pyrrolo[3,2-d]pyrimidine-7-carboxamide]
< 1	COc1ccc(-c2ncnc3c(C(=O)NC4CCN(C(=O)CO)CC4)c(C)[nH]c23)c(OCC2CC2)c1 [Example F34, 4-[2-(Cyclopropylmethoxy)-4-methoxyphenyl]-N-(1-glycoloylpiperidin-4-yl)-6-methyl-5H-pyrrolo[3,2-d]pyrimidine-7-carboxamide]
1 to 10	Cc1[nH]c2c(-c3ccc(F)cc3OCC3CC3)ncnc2c1C(=O)N[C@@H]1CN(C(=O)CO)C[C@H]1O (relative stereo) [Example F19, 4-[2-(Cyclopropylmethoxy)-4-fluorophenyl]-N-[(3R*,4R*)-4-hydroxy-1-(hydroxyacetyl)pyrrolidin-3-yl]-6-methyl-5H-pyrrolo[3,2-d]pyrimidine-7-carboxamide]
< 1	CCC(=O)N1CCC(NC(=O)c2c(C)[nH]c3c(-c4cc(F)c(OC)cc4OCC4CC4)ncnc23)CC1 [Example E132, 4-[2-(Cyclopropylmethoxy)-5-fluoro-4-methoxyphenyl]-6-methyl-N-(1-propionylpiperidin-4-yl)-5H-pyrrolo[3,2-d]pyrimidine-7-carboxamide]
< 1	COCC(=O)N1CCC(NC(=O)c2c(C)[nH]c3c(-c4c(OCC5CC5)ccc5c4OCO5)ncnc23)CC1 [Example E3, 4-[5-(Cyclopropylmethoxy)-1,3-benzodioxol-4-yl]-N-[1-(methoxyacetyl)piperidin-4-yl]-6-methyl-5H-pyrrolo[3,2-d]pyrimidine-7-carboxamide]
< 1	CCC(=O)N1CC[C@@H](NC(=O)c2c(C)[nH]c3c(-c4c(OCC5CC5)ccc5c4OCO5)ncnc23)C1 [Example E14, 4-[5-(Cyclopropylmethoxy)-1,3-benzodioxol-4-yl]-6-methyl-N-[(3R)-1-propionylpyrrolidin-3-yl]-5H-pyrrolo[3,2-d]pyrimidine-7-carboxamide]
< 1	COc1cc(-c2ncnc3c(C(=O)N[C@H]4CN(C(=O)CO)CC[C@@H]4O)c(C)[nH]c23)c(OCC2CC2)cc1F (relative stereo) [Example F73, 4-[2-(Cyclopropylmethoxy)-4-fluoro-5-methoxyphenyl]-N-[(3S*,4S*)-1-glycoloyl-4-hydroxypiperidin-3-yl]-6-methyl-5H-pyrrolo[3,2-d]pyrimidine-7-carboxamide]
< 1	COc1ccc(-c2ncnc3c(C(=O)N[C@@H]4CCN(C(=O)CO)C4)c(C)[nH]c23)c(OCC2CC2)c1 [Example F37, 4-[2-(Cyclopropylmethoxy)-4-methoxyphenyl]-N-[(3R)-1-glycoloylpyrrolidin-3-yl]-6-methyl-5H-pyrrolo[3,2-d]pyrimidine-7-carboxamide]
1 to 10	CCOc1ccc(F)cc1-c1ncnc2c(C(=O)NC3CCN(C(=O)CC)CC3)c(C)[nH]c12 [Example E53, 4-(2-Ethoxy-5-fluorophenyl)-6-methyl-N-(1-propanoylpiperidin-4-yl)-5H-pyrrolo[3,2-d]pyrimidine-7-carboxamide]
< 1	Cc1[nH]c2c(-c3ccc(F)cc3OCC3CC3)ncnc2c1C(=O)N[C@H]1CC[C@H](NC(=O)[C@H](C)O)CC1 [Example F14, 4-[2-(Cyclopropylmethoxy)-4-fluorophenyl]-N-(trans-4-{[(2S)-2-hydroxypropanoyl]amino}cyclohexyl)-6-methyl-5H-pyrrolo[3,2-d]pyrimidine-7-carboxamide]
< 1	Cc1[nH]c2c(-c3c(OCC4CC4)ccc4c3OCO4)ncnc2c1C(=O)N[C@H]1CC[C@H](NC(=O)[C@H](C)O)CC1 [Example F4, 4-[5-(cyclopropylmethoxy)-1,3-benzodioxol-4-yl]-N-(trans-4-{[(2S)-2-hydroxypropanoyl]amino}cyclohexyl)-6-methyl-5H-pyrrolo[3,2-d]pyrimidine-7-carboxamide]
< 1	CCOc1ccc(C(F)(F)F)cc1-c1ncnc2c(C(=O)NC3CCN(C(C)=O)CC3)c(C)[nH]c12 [Example E99, N-(1-acetylpiperidin-4-yl)-4-[2-ethoxy-5-(trifluoromethyl)phenyl]-6-methyl-5H-pyrrolo[3,2-d]pyrimidine-7-carboxamide]
< 1	COCC(=O)N[C@H]1CC[C@H](NC(=O)c2c(C)[nH]c3c(-c4cc(C)c(F)cc4OCC4CC4)ncnc23)CC1 [Example E124, 4-[2-(Cyclopropylmethoxy)-4-fluoro-5-methylphenyl]-N-{trans-4-[(methoxyacetyl)amino]cyclohexyl}-6-methyl-5H-pyrrolo[3,2-d]pyrimidine-7-carboxamide]
< 1	CCOc1ccc(C(F)(F)F)cc1-c1ncnc2c(C(=O)NC3CCN(C(=O)COC)CC3)c(C)[nH]c12 [Example E101, 4-[2-Ethoxy-5-(trifluoromethyl)phenyl]-N-[1-(methoxyacetyl)piperidin-4-yl]-6-methyl-5H-pyrrolo[3,2-d]pyrimidine-7-carboxamide]
< 1	COc1cc(OCC2CC2)c(-c2ncnc3c(C(=O)N[C@@H]4CCN(C(C)=O)C[C@H]4O)c(C)[nH]c23)cc1F (relative stereo) [Example E142, N-[(3R*,4R*)-1-Acetyl-3-hydroxypiperidin-4-yl]-4-[2-(cyclopropylmethoxy)-5-fluoro-4-methoxyphenyl]-6-methyl-5H-pyrrolo[3,2-d]pyrimidine-7-carboxamide]
